Measured values as given in patent US6737383B1, “Herbicidal oxadiazolidines” (priority 1999, dated 2004).

How the values were obtained:
bedstraw = experiment: Test B pre/postemergence bedstraw; type: in vivo, Galium aparine
In short: (§1)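 Response is a visual 0-to-10 score relative to untreated plants, where 0 means no effect and 10 means complete control, taken twelve to sixteen days after application. Treatments went onto soil at planting and onto foliage of 1- to 4-leaf plants, using a surfactant-containing non-phytotoxic solvent.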

blackgrass = experiment: Test B pre/postemergence blackgrass; type: in vivo, Alopecurus myosuroides
In short: as §1

surinam grass = experiment: Test B pre/postemergence surinam grass; type: in vivo, Brachiaria decumbens
In short: as §1

cocklebur = experiment: Test B pre/postemergence cocklebur; type: in vivo, Xanthium strumarium
In short: as §1

crabgrass = experiment: Test B pre/postemergence crabgrass; type: in vivo, Digitaria sanguinalis
In short: as §1

giant foxtail = experiment: Test B pre/postemergence giant foxtail; type: in vivo, Setaria faberii
In short: as §1

morningglory = experiment: Test B pre/postemergence morningglory; type: in vivo, Ipomoea hederacea
In short: as §1

pigweed = experiment: Test B pre/postemergence pigweed; type: in vivo, Amaranthus retroflexus
In short: as §1

soybean = experiment: Test B pre/postemergence soybean; type: in vivo, Glycine max
In short: as §1

velvetleaf = experiment: Test B pre/postemergence velvetleaf; type: in vivo, Abutilon theophrasti
In short: as §1

wheat = experiment: Test B pre/postemergence wheat; type: in vivo, Triticum aestivum
In short: as §1

wild oat = experiment: Test B pre/postemergence wild oat; type: in vivo, Avena fatua
In short: as §1

purple nutsedge = experiment: Test B pre/postemergence purple nutsedge; type: in vivo, Cyperus rotundus
In short: as §1

rice = experiment: Test B flood test rice; type: in vivo, Oryza sativa
In short: (§2)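 Plants were grown to the 2-leaf stage before treatment with test chemical, then held in a greenhouse for twelve to sixteen days. Injury was visually rated against untreated controls on a 0–10 scale, where 0 is no effect and 10 is complete control.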

smallflower flatsedge = experiment: Test B flood test smallflower flatsedge; type: in vivo, Cyperus difformis
In short: as §2

bamyardgrass = experiment: Test B flood test barnyardgrass; type: in vivo, Echinochloa crus-galli
In short: as §2

[1] = Preemergence, Rate 62 g/ha, scale of 0 to 10 where 0 is no effect and 10 is complete control
[2] = Preemergence, Rate 250 g/ha, scale of 0 to 10 where 0 is no effect and 10 is complete control
[3] = Preemergence, Rate 500 g/ha, scale of 0 to 10 where 0 is no effect and 10 is complete control
[4] = Rate 62 g/ha, Postemergence, scale of 0 to 10 where 0 is no effect and 10 is complete control
[5] = Rate 125 g/ha, Postemergence, scale 0 to 10
[6] = Rate 125 g/ha, Preemergence, scale of 0 to 10 where 0 is no effect and 10 is complete control
[7] = Rate 500 g/ha, Postemergence, scale 0 to 10, 0 no effect, 10 complete control
[8] = Rate 62 g/ha, headed Pre-emergence (flood test species), scale 0 to 10 (0 no effect, 10 complete control)
[9] = Rate 125 g/ha, Pre-emergence, flood test species, scale 0 to 10 where 0 is no effect and 10 is complete control
[10] = Rate 250 g/ha, Pre-emergence, flood-test species, scale 0 to 10, 0 is no effect, 10 is complete control
[11] = Rate 500 g/ha, Pre-emergence, flood test species, scale 0 to 10 (0 no effect, 10 complete control)

CCN(C(=O)n1oc(=O)n(C)c1=O)C1CCCCC1 [Compound 228]
Bedstraw plant response rating (bedstraw; [1]): 0
Bedstraw plant response rating (bedstraw; [2]): 0
Plant response rating, Bedstraw (bedstraw; [3]): 0
Bedstraw plant response rating (bedstraw; [4]): 0
Bedstraw plant response rating (bedstraw; [5]): 0
Bedstraw plant response rating (bedstraw; [6]): 0
Plant response rating (0 to 10; 0 is no effect, 10 is complete control), Bedstraw (bedstraw; Rate 250 g/ha, Postemergence): 0
Bedstraw plant response rating (bedstraw; [7]): 2
Blackgrass plant response rating (blackgrass; [1]): 0
Blackgrass plant response rating (blackgrass; [2]): 0
Plant response rating, Blackgrass (blackgrass; [3]): 0
Blackgrass plant response rating (blackgrass; [4]): 0
Blackgrass plant response rating (blackgrass; [5]): 0
Blackgrass plant response rating (blackgrass; [6]): 0
Plant response rating (0 to 10; 0 is no effect, 10 is complete control), Blackgrass (blackgrass; Rate 250 g/ha, Postemergence): 0
Blackgrass plant response rating (blackgrass; [7]): 0
B. signalgrass plant response rating (surinam grass; [1]): 0
B. signalgrass plant response rating (surinam grass; Preemergence, Rate 250 g/ha, scale 0 to 10, 0 is no effect, 10 is complete control): 0
Plant response rating, B. signalgrass (surinam grass; [3]): 0
B. signalgrass plant response rating (surinam grass; [4]): 0
B. signalgrass plant response rating (surinam grass; Rate 125 g/ha, Postemergence, scale 0 (no effect) to 10 (complete control)): 0
B. signalgrass plant response rating (surinam grass; [6]): 0
Plant response rating (0 to 10; 0 is no effect, 10 is complete control), B. signalgrass (surinam grass; Rate 250 g/ha, Postemergence): 0
B. signalgrass plant response rating (surinam grass; [7]): 0
Cocklebur plant response rating (cocklebur; [1]): 0
Cocklebur plant response rating (cocklebur; [2]): 0
Plant response rating, Cocklebur (cocklebur; [3]): 0
Cocklebur plant response rating (cocklebur; [4]): 0
Cocklebur plant response rating (cocklebur; [5]): 0
Cocklebur plant response rating (cocklebur; [6]): 0
Plant response rating (0 to 10; 0 is no effect, 10 is complete control), Cocklebur (cocklebur; Rate 250 g/ha, Postemergence): 0
Cocklebur plant response rating (cocklebur; [7]): 0
Crabgrass plant response rating (crabgrass; [1]): 0
Crabgrass plant response rating (crabgrass; [2]): 1
Plant response rating, Crabgrass (crabgrass; [3]): 2
Crabgrass plant response rating (crabgrass; [4]): 0
Crabgrass plant response rating (crabgrass; [5]): 0
Crabgrass plant response rating (crabgrass; [6]): 0
Plant response rating (0 to 10; 0 is no effect, 10 is complete control), Crabgrass (crabgrass; Rate 250 g/ha, Postemergence): 0
Crabgrass plant response rating (crabgrass; [7]): 0
Giant foxtail plant response rating (giant foxtail; [2]): 9
Plant response rating, Giant foxtail (giant foxtail; [3]): 9
Giant foxtail plant response rating (giant foxtail; [4]): 0
Giant foxtail plant response rating (giant foxtail; [5]): 0
Giant foxtail plant response rating (giant foxtail; [6]): 6
Plant response rating (0 to 10; 0 is no effect, 10 is complete control), Giant foxtail (giant foxtail; Rate 250 g/ha, Postemergence): 0
Giant foxtail plant response rating (giant foxtail; [7]): 0
Morningglory plant response rating (morningglory; [1]): 0
Morningglory plant response rating (morningglory; [2]): 0
Plant response rating, Morningglory (morningglory; [3]): 0
Morningglory plant response rating (morningglory; [4]): 2
Morningglory plant response rating (morningglory; [5]): 3
Morningglory plant response rating (morningglory; [6]): 0
Plant response rating (0 to 10; 0 is no effect, 10 is complete control), Morningglory (morningglory; Rate 250 g/ha, Postemergence): 3
Morningglory plant response rating (morningglory; [7]): 9
Redroot pigweed plant response rating (pigweed; [1]): 0
Redroot pigweed plant response rating (pigweed; [2]): 0
Plant response rating, Redroot pigweed (pigweed; [3]): 0
Redroot pigweed plant response rating (pigweed; [4]): 0
Redroot pigweed plant response rating (pigweed; [5]): 0
Redroot pigweed plant response rating (pigweed; [6]): 0
Plant response rating (0 to 10; 0 is no effect, 10 is complete control), Redroot pigweed (pigweed; Rate 250 g/ha, Postemergence): 0
Redroot pigweed plant response rating (pigweed; [7]): 2
Soybean plant response rating (soybean; [1]): 0
Soybean plant response rating (soybean; [2]): 0
Plant response rating, Soybean (soybean; [3]): 0
Soybean plant response rating (soybean; [4]): 0
Soybean plant response rating (soybean; [5]): 0
Soybean plant response rating (soybean; [6]): 0
Plant response rating (0 to 10; 0 is no effect, 10 is complete control), Soybean (soybean; Rate 250 g/ha, Postemergence): 1
Soybean plant response rating (soybean; [7]): 1
Velvetleaf plant response rating (velvetleaf; [1]): 0
Velvetleaf plant response rating (velvetleaf; [2]): 0
Plant response rating, Velvetleaf (velvetleaf; [3]): 0
Velvetleaf plant response rating (velvetleaf; [4]): 0
Velvetleaf plant response rating (velvetleaf; [5]): 0
Velvetleaf plant response rating (velvetleaf; [6]): 0
Plant response rating (0 to 10; 0 is no effect, 10 is complete control), Velvetleaf (velvetleaf; Rate 250 g/ha, Postemergence): 0
Velvetleaf plant response rating (velvetleaf; [7]): 0
Wheat plant response rating (wheat; [1]): 0
Wheat plant response rating (wheat; [2]): 0
Plant response rating, Wheat (wheat; [3]): 0
Wheat plant response rating (wheat; [4]): 0
Wheat plant response rating (wheat; [5]): 0
Wheat plant response rating (wheat; [6]): 0
Plant response rating (0 to 10; 0 is no effect, 10 is complete control), Wheat (wheat; Rate 250 g/ha, Postemergence): 0
Wheat plant response rating (wheat; [7]): 0
Wild oats plant response rating (wild oat; [1]): 0
Wild oats plant response rating (wild oat; [2]): 0
Plant response rating, Wild oats (wild oat; [3]): 0
Wild oats plant response rating (wild oat; [4]): 0
Wild oats plant response rating (wild oat; [5]): 0
Wild oats plant response rating (wild oat; [6]): 0
Plant response rating (0 to 10; 0 is no effect, 10 is complete control), Wild oats (wild oat; Rate 250 g/ha, Postemergence): 0
Wild oats plant response rating (wild oat; [7]): 0
Nutsedge plant response rating (purple nutsedge; [1]): 0
Nutsedge plant response rating (purple nutsedge; [2]): 0
Plant response rating, Nutsedge (purple nutsedge; [3]): 0
Nutsedge plant response rating (purple nutsedge; [4]): 0
Nutsedge plant response rating (purple nutsedge; [5]): 0
Nutsedge plant response rating (purple nutsedge; [6]): 0
Plant response rating (0 to 10; 0 is no effect, 10 is complete control), Nutsedge (purple nutsedge; Rate 250 g/ha, Postemergence): 0
Nutsedge plant response rating (purple nutsedge; [7]): 0
Rice plant response rating (rice; [8]): 0
Rice plant response rating (rice; [9]): 0
Rice plant response rating (rice; [10]): 0
Rice plant response rating (rice; [11]): 0
S. Flatsedge plant response rating (smallflower flatsedge; [8]): 0
S. Flatsedge plant response rating (smallflower flatsedge; [9]): 0
S. Flatsedge plant response rating (smallflower flatsedge; [10]): 0
S. Flatsedge plant response rating (smallflower flatsedge; [11]): 0
Barnyardgrass plant response rating (bamyardgrass; [8]): 0
Barnyardgrass plant response rating (bamyardgrass; [9]): 0
Barnyardgrass plant response rating (bamyardgrass; [10]): 0
Barnyardgrass plant response rating (bamyardgrass; [11]): 0
